Consider 18 compounds from patent publication US20250136606A1, “MODULATORS OF TRPML, THEIR COMPOSITIONS AND METHODS OF USE” (Caraway Therapeutics, Inc., priority 2021, published 2025).

Holding throughout (type): cell-based
Common to all, as to conditions: fluorescent calcium assay

For test [1], the target named is TRPML1 (Homo sapiens, UniProt Q9GZU1). Description: Fluorescent TRPML1 assay (Fluo4-AM calcium fluorescence in doxycycline-induced HEK-293 Trex cells). The method, boiled down: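 EC50 values come from non-linear regression of percent activity, normalized to on-plate positive and negative controls, with fluorescence read at 480 nm excitation and 540 nm emission. Fluo4-AM-loaded (1 µM) doxycycline-induced HEK-293 Trex cells expressing mutated human TRPML1 were exposed in 10 mM calcium Ringer's to 6 nM–20 µM compound, in triplicate.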

Test [2] addresses T1, TRPML2 (Homo sapiens, UniProt Q8IZK6).
T1 construct: expressed in transfected cells
T1 sequence (Q8IZK6 1-566): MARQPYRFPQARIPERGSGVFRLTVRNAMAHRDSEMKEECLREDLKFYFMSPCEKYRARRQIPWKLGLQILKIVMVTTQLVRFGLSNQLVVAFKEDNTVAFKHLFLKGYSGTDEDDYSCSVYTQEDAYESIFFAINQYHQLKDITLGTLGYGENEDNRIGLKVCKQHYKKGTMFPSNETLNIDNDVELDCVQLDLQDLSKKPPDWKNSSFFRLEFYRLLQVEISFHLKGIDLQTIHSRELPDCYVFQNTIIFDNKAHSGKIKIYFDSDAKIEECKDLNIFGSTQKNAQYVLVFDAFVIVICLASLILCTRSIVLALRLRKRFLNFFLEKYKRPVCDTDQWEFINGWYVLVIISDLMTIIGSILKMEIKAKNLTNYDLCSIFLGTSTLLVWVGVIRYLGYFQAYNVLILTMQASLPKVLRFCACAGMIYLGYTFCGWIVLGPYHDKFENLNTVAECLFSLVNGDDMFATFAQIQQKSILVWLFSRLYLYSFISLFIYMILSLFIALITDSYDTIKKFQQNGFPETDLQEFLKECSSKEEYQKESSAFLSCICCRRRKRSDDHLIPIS
As to the kind of experiment: Fluorescent TRPML2 assay (performed as for TRPML1, substituting the TRPML2 subtype). A digest of the protocol:
(§1)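 HEK-293 Trex cells with doxycycline-induced (0.5 ug/mL) surface-directed human TRPML subtype, loaded with 1 μM Fluo4-AM, resuspended in Ringer's with 10 mM calcium. Compounds at 20 μM to 6 nM final in half-log steps, triplicate; fluorescence ex 480/em 540; EC50 by non-linear regression versus plate controls.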

Test [3] concerns the target T2, TRPML3 (Homo sapiens, UniProt Q8TDD5).
T2 construct: expressed in transfected cells
T2 sequence (Q8TDD5 1-553): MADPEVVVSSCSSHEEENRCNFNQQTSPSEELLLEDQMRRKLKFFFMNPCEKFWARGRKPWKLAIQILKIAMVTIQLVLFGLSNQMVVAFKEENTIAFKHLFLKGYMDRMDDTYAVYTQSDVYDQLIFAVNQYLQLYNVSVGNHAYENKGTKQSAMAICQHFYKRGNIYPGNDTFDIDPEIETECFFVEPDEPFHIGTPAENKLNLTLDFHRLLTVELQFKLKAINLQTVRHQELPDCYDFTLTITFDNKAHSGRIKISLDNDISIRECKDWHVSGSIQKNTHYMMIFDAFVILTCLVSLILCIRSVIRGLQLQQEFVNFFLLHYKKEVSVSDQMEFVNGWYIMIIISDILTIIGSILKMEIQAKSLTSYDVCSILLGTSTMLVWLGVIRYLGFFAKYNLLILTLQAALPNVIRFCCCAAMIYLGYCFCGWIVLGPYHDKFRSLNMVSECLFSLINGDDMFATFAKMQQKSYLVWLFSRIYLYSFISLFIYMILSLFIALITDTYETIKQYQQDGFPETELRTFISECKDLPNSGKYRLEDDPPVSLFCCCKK
As to the kind of experiment: Fluorescent TRPML3 assay (performed as for TRPML1, substituting the TRPML3 subtype). A digest of the protocol: as §1

In general, EC50 refers to the midpoint of the concentration-response curve.

TRPML1, sequence (Q9GZU1 whole entry L15A/L16A/L577A/L578A, form open): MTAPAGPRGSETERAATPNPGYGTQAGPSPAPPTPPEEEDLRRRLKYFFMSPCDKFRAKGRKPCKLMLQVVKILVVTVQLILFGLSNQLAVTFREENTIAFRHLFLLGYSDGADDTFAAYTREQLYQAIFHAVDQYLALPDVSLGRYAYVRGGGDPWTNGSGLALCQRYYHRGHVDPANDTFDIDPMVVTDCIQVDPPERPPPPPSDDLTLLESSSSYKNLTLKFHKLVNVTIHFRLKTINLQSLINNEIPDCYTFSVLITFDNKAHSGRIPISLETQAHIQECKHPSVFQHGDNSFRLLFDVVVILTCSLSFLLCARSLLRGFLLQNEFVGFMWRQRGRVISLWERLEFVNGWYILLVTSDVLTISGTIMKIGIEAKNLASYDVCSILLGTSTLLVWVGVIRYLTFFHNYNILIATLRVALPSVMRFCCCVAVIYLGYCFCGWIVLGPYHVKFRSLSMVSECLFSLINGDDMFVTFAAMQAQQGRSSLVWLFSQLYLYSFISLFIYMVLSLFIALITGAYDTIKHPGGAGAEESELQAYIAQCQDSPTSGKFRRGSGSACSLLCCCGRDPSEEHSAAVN

`C[C@H]1CN(C(=O)OC(C)(C)C)CCN1c1ncnc2c1c(C1CC1)cn2-c1cccc(OC(F)F)c1` [Compound 198, tert-butyl (S)-4-(5-cyclopropyl-7-(3-(difluoromethoxy)phenyl)-7H-pyrrolo[2,3-d]pyrimidin-4-yl)-3-methylpiperazine-1-carboxylate]: the EC50 in test [1] was less than 100 nM; in test [2], 100 to 500 nM; in test [3], less than 100 nM.

Turning to `C[C@@H]1CN(C(=O)OC(C)(C)C)CCN1c1ncnc2c1c(C1CC1)cn2-c1cccc(C#N)c1` [Compound 199, tert-butyl (R)-4-(7-(3-cyanophenyl)-5-cyclopropyl-7H-pyrrolo[2,3-d]pyrimidin-4-yl)-3-methylpiperazine-1-carboxylate], the EC50 in test [1], in test [2] and in test [3] was 100 to 500 nM each time.

Take `C[C@H]1CN(C(=O)OC(C)(C)C)CCN1c1ncnc2c1c(C1CC1)cn2-c1cccc(C#N)c1` [Compound 200, tert-butyl (S)-4-(7-(3-cyanophenyl)-5-cyclopropyl-7H-pyrrolo[2,3-d]pyrimidin-4-yl)-3-methylpiperazine-1-carboxylate]: the EC50 in test [1] is less than 100 nM; in test [2], 100 to 500 nM; in test [3], less than 100 nM.

Regarding `COc1cccc(-n2cc(C3CC3)c3c(N4CCN(C(=O)OC(C)(C)C)C[C@H]4C)ncnc32)c1` [Compound 201, tert-butyl (R)-4-(5-cyclopropyl-7-(3-methoxyphenyl)-7H-pyrrolo[2,3-d]pyrimidin-4-yl)-3-methylpiperazine-1-carboxylate], the results for the 50% effective concentration (EC50) in test [1], in test [2] and in test [3] were 100 to 500 nM, 500 to 2000 nM and 100 to 500 nM, respectively.

Regarding `COc1cccc(-n2cc(C3CC3)c3c(N4CCN(C(=O)OC(C)(C)C)C[C@@H]4C)ncnc32)c1` [Compound 202, tert-butyl (S)-4-(5-cyclopropyl-7-(3-methoxyphenyl)-7H-pyrrolo[2,3-d]pyrimidin-4-yl)-3-methylpiperazine-1-carboxylate], the figures for the EC50 in test [1], in test [2] and in test [3] were 100 to 500 nM, 500 to 2000 nM and 100 to 500 nM, respectively.

For the compound `C[C@H]1CN(C(=O)OC(C)(C)C)CCN1c1ncnc2c1c(C1CC1)cn2-c1cc(F)cc(F)c1` [Compound 203, tert-butyl (S)-4-(5-cyclopropyl-7-(3,5-difluorophenyl)-7H-pyrrolo[2,3-d]pyrimidin-4-yl)-3-methylpiperazine-1-carboxylate], the EC50 in test [1] was less than 100 nM; in test [2], 100 to 500 nM; in test [3], less than 100 nM.

As for `C[C@@H]1CN(c2ncnc3c2c(C2CC2)cn3-c2cc(F)c(F)c(F)c2)CCN1C(=O)OC(C)(C)C` [Compound 204, tert-butyl (R)-4-(5-cyclopropyl-7-(3,4,5-trifluorophenyl)-7H-pyrrolo[2,3-d]pyrimidin-4-yl)-2-methylpiperazine-1-carboxylate], the values for the half-maximal effective concentration (EC50) in test [1], in test [2] and in test [3] were less than 100 nM, 100 to 500 nM and less than 100 nM, respectively.

`C[C@@H]1CN(c2ncnc3c2c(C2CC2)cn3-c2cccc(F)c2F)CCN1C(=O)OC(C)(C)C` [Compound 205, tert-butyl (R)-4-(5-cyclopropyl-7-(2,3-difluorophenyl)-7H-pyrrolo[2,3-d]pyrimidin-4-yl)-2-methylpiperazine-1-carboxylate]: the EC50 was 100 to 500 nM in test [1], 500 to 2000 nM in test [2] and 100 to 500 nM in test [3].

For the compound `C[C@@H]1CN(c2ncnc3c2c(C2CC2)cn3-c2cc(F)ccc2F)CCN1C(=O)OC(C)(C)C` [Compound 206, tert-butyl (R)-4-(5-cyclopropyl-7-(2,5-difluorophenyl)-7H-pyrrolo[2,3-d]pyrimidin-4-yl)-2-methylpiperazine-1-carboxylate], the EC50 in test [1] is less than 100 nM; in test [2], 500 to 2000 nM; in test [3] it was 100 to 500 nM.

Turning to `C[C@@H]1CN(c2ncnc3c2c(C2CC2)cn3-c2cc(F)c(F)c(Cl)c2)CCN1C(=O)OC(C)(C)C` [Compound 207, tert-butyl (R)-4-(7-(3-chloro-4,5-difluorophenyl)-5-cyclopropyl-7H-pyrrolo[2,3-d]pyrimidin-4-yl)-2-methylpiperazine-1-carboxylate], the 50% effective concentration (EC50) in test [1] was less than 100 nM; in test [2] it was 100 to 500 nM; in test [3], less than 100 nM.

Take `C[C@@H]1CN(c2ncnc3c2c(C2CC2)cn3-c2ccc(F)c(Cl)c2)CCN1C(=O)OC(C)(C)C` [Compound 208, tert-butyl (R)-4-(7-(3-chloro-4-fluorophenyl)-5-cyclopropyl-7H-pyrrolo[2,3-d]pyrimidin-4-yl)-2-methylpiperazine-1-carboxylate]: the half-maximal effective concentration (EC50) in test [1] is less than 100 nM; in test [2], 100 to 500 nM; in test [3], less than 100 nM.

For the compound `C[C@@H]1CN(C(=O)OC(C)(C)C)CCN1c1ncnc2c1c(N1CCCC1)cn2-c1cccc(Cl)c1` [Compound 209, tert-Butyl (R)-4-(7-(3-chlorophenyl)-5-(pyrrolidin-1-yl)-7H-pyrrolo[2,3-d]pyrimidin-4-yl)-3-methylpiperazine-1-carboxylate], the figures for the EC50 in test [1], in test [2] and in test [3] were less than 100 nM, 100 to 500 nM and less than 100 nM, respectively.

With `C[C@H]1CN(C(=O)OC(C)(C)C)CCN1c1ncnc2c1c(N1CCCC1)cn2-c1cccc(Cl)c1` [Compound 210, tert-Butyl (S)-4-(7-(3-chlorophenyl)-5-(pyrrolidin-1-yl)-7H-pyrrolo[2,3-d]pyrimidin-4-yl)-3-methylpiperazine-1-carboxylate], the 50% effective concentration (EC50) in test [1], in test [2] and in test [3] was less than 100 nM each time.

As for `C[C@@H]1CN(C(=O)OC(C)(C)C)CCN1c1ncnc2c1c(C1CC1)cn2-c1cc(F)cc(F)c1` [Compound 211, tert-butyl (R)-4-(5-cyclopropyl-7-(3,5-difluorophenyl)-7H-pyrrolo[2,3-d]pyrimidin-4-yl)-3-methylpiperazine-1-carboxylate], the EC50 was 100 to 500 nM in test [1], 500 to 2000 nM in test [2] and less than 100 nM in test [3].

Take `C[C@H]1CN(C(=O)OC(C)(C)C)CCN1c1ncnc2c1c(-c1cccnc1)cn2-c1ccc(F)c(Cl)c1` [Compound 212, tert-butyl (S)-4-(7-(3-chloro-4-fluorophenyl)-5-(pyridin-3-yl)-7H-pyrrolo[2,3-d]pyrimidin-4-yl)-3-methylpiperazine-1-carboxylate]: the figures for the concentration giving a half-maximal response (EC50) in test [1], in test [2] and in test [3] were less than 100 nM, 100 to 500 nM and less than 100 nM, respectively.

As for `C[C@H]1CN(C(=O)OC(C)(C)C)CCN1c1ncnc2c1c(-c1cccnc1)cn2-c1cc(F)cc(F)c1` [Compound 213, tert-butyl-(S)-4-(7-(3,5-difluorophenyl)-5-(pyridin-3-yl)-7H-pyrrolo[2,3-d]pyrimidin-4-yl)-3-methylpiperazine-1-carboxylate], the concentration for a half-maximal effect (EC50) lay in the range of 100 to 500 nM in test [1], 500 to 2000 nM in test [2] and 100 to 500 nM in test [3].

On to `C[C@@H]1CN(c2ncnc3c2c(-c2cccnc2)cn3-c2cc(F)cc(F)c2)CCN1C(=O)OC(C)(C)C` [Compound 214, tert-butyl (R)-4-(7-(3,5-difluorophenyl)-5-(pyridin-3-yl)-7H-pyrrolo[2,3-d]pyrimidin-4-yl)-2-methylpiperazine-1-carboxylate], for which the concentration for a half-maximal effect (EC50) fell in the range of 100 to 500 nM in test [1], 500 to 2000 nM in test [2] and 100 to 500 nM in test [3].

`C[C@@H]1CN(c2ncnc3c2c(-c2ccccn2)cn3-c2cc(F)cc(F)c2)CCN1C(=O)OC(C)(C)C` [Compound 215, tert-butyl (R)-4-(7-(3,5-difluorophenyl)-5-(pyridin-2-yl)-7H-pyrrolo[2,3-d]pyrimidin-4-yl)-2-methylpiperazine-1-carboxylate]: the half-maximal effective concentration (EC50) in test [1] lay in the range of 100 to 500 nM; in test [2] it was 500 to 2000 nM; in test [3] it was 100 to 500 nM.
